This is an account of results in patent US8273880B2, “Pyrazole compounds with inhibitory activity against ROS kinase” (Korea Institute of Science and Technology, priority 2009, dated 2012).

“Also recorded” adds a separate entry of the source. Where two headings read alike, the source gives them in different places.

For experiment [1], the target named is T1, ROS kinase (Homo sapiens, UniProt P08922). Briefly: ROS kinase screening (HotSpot, IC50 mode). The experiment is classed as biochemical. The arrangement: purchased Reaction Biology Corporation. To be noted: 10-dose IC50 mode starting from 20 μM; 10 μM ATP; read-out: Inhibitory Activity against ROS (IC50). As for the experimental part:
(§1) Kinase screening was performed using a “HotSpot” assay platform commercially available from Reaction Biology Corporation. For this kinase screening, reaction buffers were based on 20 mM Hepes (pH 7.5), 10 mM MgCl2, 1 mM EGTA, 0.02% Brij35, 0.02 mg/mL BSA, 0.1 mM Na3VO4, 2 mM DTT, and 1% DMSO, with supplementary factors necessary for respective kinase reactions added thereto. In each enzyme reaction, […] of each kinase was used together with a fresh reaction buffer and appropriate supplementary factors. A solution of each compound in DMSO was added in a suitable concentration to the reaction buffer. Kinase reaction started with the introduction of […] (specific activity […]) and continued for 2 hours at room temperature.
The reaction was performed with 10 μM ATP.

Another experiment concerns 45 different kinases. As to the kind of experiment: Kinase selectivity from screening over 45 different kinases. The experiment is classed as biochemical. On the procedure: as §1
1) Screening of Compounds Over 45 Different Kinases
Each compound was tested twice at a single dose concentration of 10 μM. […] The reaction was performed with 10 μM ATP.

Experiment [2] concerns the target T1, ROS kinase. Details: literature Reaction Biology Corporation. To be noted: Data from Reaction Biology corporation (website); read-out: Inhibitory Activity against ROS (IC50); cited from earlier work.

T1 sequence (P08922 28-2347): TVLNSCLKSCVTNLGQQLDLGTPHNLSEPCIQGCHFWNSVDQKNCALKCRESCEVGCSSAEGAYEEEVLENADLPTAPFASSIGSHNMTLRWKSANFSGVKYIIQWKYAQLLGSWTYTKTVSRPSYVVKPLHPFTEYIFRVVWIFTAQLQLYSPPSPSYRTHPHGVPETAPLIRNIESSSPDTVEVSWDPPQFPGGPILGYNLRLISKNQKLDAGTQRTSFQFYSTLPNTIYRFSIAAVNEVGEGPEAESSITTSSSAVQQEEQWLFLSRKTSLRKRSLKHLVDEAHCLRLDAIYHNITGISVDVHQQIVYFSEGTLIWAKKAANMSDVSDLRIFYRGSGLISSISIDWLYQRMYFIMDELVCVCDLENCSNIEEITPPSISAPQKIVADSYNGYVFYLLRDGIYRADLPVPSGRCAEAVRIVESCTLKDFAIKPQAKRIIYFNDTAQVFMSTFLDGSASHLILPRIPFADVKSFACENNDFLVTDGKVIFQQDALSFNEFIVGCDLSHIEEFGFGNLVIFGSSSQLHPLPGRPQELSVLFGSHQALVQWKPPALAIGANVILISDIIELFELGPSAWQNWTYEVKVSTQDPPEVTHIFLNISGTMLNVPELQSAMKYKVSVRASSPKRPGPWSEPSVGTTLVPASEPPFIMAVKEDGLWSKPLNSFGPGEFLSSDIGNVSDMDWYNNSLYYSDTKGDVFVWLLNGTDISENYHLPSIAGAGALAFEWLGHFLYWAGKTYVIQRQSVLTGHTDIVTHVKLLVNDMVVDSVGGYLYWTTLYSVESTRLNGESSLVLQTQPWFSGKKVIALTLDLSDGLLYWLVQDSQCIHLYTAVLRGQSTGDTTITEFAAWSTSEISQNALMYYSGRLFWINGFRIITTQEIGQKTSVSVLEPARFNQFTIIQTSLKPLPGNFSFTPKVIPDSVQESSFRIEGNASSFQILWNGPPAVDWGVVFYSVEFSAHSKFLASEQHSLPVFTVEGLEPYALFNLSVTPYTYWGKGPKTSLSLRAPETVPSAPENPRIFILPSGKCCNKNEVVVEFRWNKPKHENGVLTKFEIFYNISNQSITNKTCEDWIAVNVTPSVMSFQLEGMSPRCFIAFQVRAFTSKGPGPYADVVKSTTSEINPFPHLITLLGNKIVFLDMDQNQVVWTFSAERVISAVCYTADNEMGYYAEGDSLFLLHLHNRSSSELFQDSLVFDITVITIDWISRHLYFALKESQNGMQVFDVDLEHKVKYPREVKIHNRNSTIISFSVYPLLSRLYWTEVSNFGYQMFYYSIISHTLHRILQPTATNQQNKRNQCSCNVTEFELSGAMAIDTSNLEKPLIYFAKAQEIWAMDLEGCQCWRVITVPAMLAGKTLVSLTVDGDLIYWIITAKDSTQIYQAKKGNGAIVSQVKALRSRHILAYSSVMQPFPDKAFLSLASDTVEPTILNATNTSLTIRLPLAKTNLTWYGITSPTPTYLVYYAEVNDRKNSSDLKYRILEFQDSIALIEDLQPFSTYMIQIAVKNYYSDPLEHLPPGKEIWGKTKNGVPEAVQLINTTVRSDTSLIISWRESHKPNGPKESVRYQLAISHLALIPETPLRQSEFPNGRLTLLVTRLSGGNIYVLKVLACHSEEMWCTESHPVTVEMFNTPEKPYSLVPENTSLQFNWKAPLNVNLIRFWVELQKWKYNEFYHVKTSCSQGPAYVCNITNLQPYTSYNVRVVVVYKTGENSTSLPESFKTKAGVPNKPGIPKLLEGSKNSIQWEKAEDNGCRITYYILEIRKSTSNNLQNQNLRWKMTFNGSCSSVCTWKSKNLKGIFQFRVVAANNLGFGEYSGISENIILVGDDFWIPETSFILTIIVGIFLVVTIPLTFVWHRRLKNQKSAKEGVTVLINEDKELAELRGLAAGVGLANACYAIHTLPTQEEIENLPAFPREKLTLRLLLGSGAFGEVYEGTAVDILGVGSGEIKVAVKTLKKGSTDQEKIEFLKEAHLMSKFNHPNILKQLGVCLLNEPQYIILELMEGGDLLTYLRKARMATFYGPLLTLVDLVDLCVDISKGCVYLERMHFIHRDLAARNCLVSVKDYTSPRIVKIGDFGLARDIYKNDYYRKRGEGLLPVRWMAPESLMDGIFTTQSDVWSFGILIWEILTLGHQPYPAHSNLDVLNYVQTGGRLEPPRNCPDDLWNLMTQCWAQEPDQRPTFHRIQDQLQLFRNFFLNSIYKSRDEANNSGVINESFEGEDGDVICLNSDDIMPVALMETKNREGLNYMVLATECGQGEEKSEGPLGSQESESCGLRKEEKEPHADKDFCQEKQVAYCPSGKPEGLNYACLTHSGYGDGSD

For `Cc1cc(O)cc(-c2nn(CC#N)cc2-c2ccnc(-c3cccnc3)c2)c1` [Example 44, [3-(3-hydroxy-5-methylphenyl)-4-(2-(pyridin-3-yl)pyridin-4-yl)-pyrazol-1-yl]acetonitrile], the IC50 (in general, the concentration that inhibits the measured activity by half) on ROS kinase [1] is 0.209 µM. The “Notes (selectivity for ROS)” value in the experiment on 45 different kinases was “ROS selectivity; also recorded: Selective for ROS”.

As for PDGFR I-III, the IC50 at ROS kinase [2] is 48 µM.
